The nature of data set [1]: Solubility test of salt of Formula A (acetate, Form A-I) and its free base in different solvents. As to conditions: thermodynamic from solid.
From the text: (§1) Then the excess solids were filtered out, and the clear filtrates were used to determine solubility.
Data set [2] can be described thus: Stability experiment of salt of Formula A (high temperature, high humidity, illumination; HPLC purity and X-ray powder diffraction). As to conditions: for Purity (%): HPLC; for Stability (chemical purity and crystalline form): high temperature, illumination or high humidity for 10 days. It is filed as physicochemical. As for the experimental part:
Determination method: the test samples of Form A-I, Form B-I, Form C-I, and Form C-Ill of salt of Formula A were placed on the culture dishes respectively, which were uncovered and placed in sealed clean containers. The containers were placed under a temperature of 60° C. for 10 days, under an illumination of 4500 lx±500 lx for 10 days, and under a temperature of 25° C. and a relative humidity of 92.5%±5% for 10 days respectively. Then sampled on the 5th day and the 10th day respectively. Investigated for the purity (using HPLC analysis) and crystalline form (using X-ray powder diffraction analysis) of the samples, and compared the investigation results. The experimental results of the salts and the crystalline forms thereof were shown in Table 1, Table 2, Table 3, and Table 4.9

The nature of data set [3]: Rough solubility test of salt of Formula A in water. It counts as physicochemical. As to conditions: Purified Water, 19° C.; for solubility at 5 min: thermodynamic from solid. As for the experimental part: After each addition of water, the test tube was shaken for 5 minutes until the solid was dissolved completely. Then the rough solubility of the compound was calculated according to the weight of the compound weighed and the total amount of water added.

The next data set is described as follows: physchem. As to conditions: water, thermodynamic from solid, Solubility (mg/mL).
The mark [4] stands for this setting: High humidity (92.5% RH, 25° C.), 5 days, malate.
Where [5] appears, read: High humidity (92.5% RH, 25° C.), 10 days, malate.
Where [6] appears, read: High temperature (60° C.), 5 days, malate.
The mark [7] stands for this setting: High temperature (60° C.), 10 days, malate.
Where [8] appears, read: Illumination (4500 Lx), 5 days, malate.
Where [9] appears, read: Illumination (4500 Lx), 10 days, malate.
The mark [10] stands for this setting: 0 day, crystalline form by X-ray powder diffraction.
The mark [11] stands for this setting: High humidity (92.5% RH, 25° C.), 5 days.
Setting [12] is: High humidity (92.5% RH, 25° C.), 5 days, X-ray powder diffraction.
Where [13] appears, read: High humidity (92.5% RH, 25° C.), 10 days.
[14] abbreviates: High humidity (92.5% RH, 25° C.), 10 days, X-ray powder diffraction.
Where [15] appears, read: High temperature (60° C.), 5 days.
[16] abbreviates: High temperature (60° C.), 5 days, X-ray powder diffraction.
[17] abbreviates: High temperature (60° C.), 10 days.
Where [18] appears, read: High temperature (60° C.), 10 days, X-ray powder diffraction.
Where [19] appears, read: Illumination (4500 Lx), 5 days, X-ray powder diffraction.
Setting [20] is: Illumination (4500 Lx), 10 days.
Where [21] appears, read: Illumination (4500 Lx), 10 days, X-ray powder diffraction.
Where [22] appears, read: High humidity (92.5% RH, 25° C.), 5 days, monomalate.
Setting [23] is: High humidity (92.5% RH, 25° C.), 10 days, monomalate.
Setting [24] is: High temperature (60° C.), 5 days, monomalate.
The mark [25] stands for this setting: High temperature (60° C.), 10 days, monomalate.
[26] abbreviates: Illumination (4500 Lx), 5 days, monomalate.
[27] abbreviates: Illumination (4500 Lx), 10 days, monomalate.

We go through five compounds from patent publication US12084441B2, “Salts of a compound and the crystalline forms thereof” (priority 2017, dated 2024).

From the text for physchem: as §1

What is called solubility is the concentration that dissolves in the medium under given conditions. On to `CS(=O)(=O)N1CCC(c2ccc(-c3cc4nccnc4c(NC[C@@H]4CNCCO4)n3)cc2)CC1` [Free base of Formula A, (S)-7-(4-(1-(methylsulfonyl)piperidin-4-yl)phenyl)-N-(morpholin-2-ylmethyl) pyrido[3,4-b]pyrazin-5-amine], for which the solubility at 4 h in data set [1] (acetone, organic solvent or mixture) was found to be 2120 µg/mL; in data set [1] (ethanol, organic solvent or mixture), 640 µg/mL; in data set [1] (methanol, organic solvent or mixture), 1580 µg/mL; in data set [1] (purified water, 37 °C, water), 2.5 µg/mL; in data set [1] (purified water, water), 2.4 µg/mL; in data set [1] (tetrahydrofuran, organic solvent or mixture), 10700 µg/mL.
For the compound `CS(=O)(=O)N1CCC(c2ccc(-c3cc4nccnc4c(NC[C@@H]4CNCCO4)n3)cc2)CC1.O=C(O)CC(O)C(=O)O` [Form C-III, (S)-7-(4-(1-(methylsulfonyl)piperidin-4-yl)phenyl)-N-(morpholin-2-ylmethyl)pyrido[3,4-b]pyrazin-5-amine malate], the “Purity (%)” value amounted to 99.75% in data set [2] (0 day, malate); 99.67% in data set [2] (setting [4]); 99.69% in data set [2] (setting [5]); 99.57% in data set [2] (setting [6]); 99.70% in data set [2] (setting [7]); 99.59% in data set [2] (setting [8]). Moreover, the “Purity (%)” value in data set [2] (setting [9]) is listed as 99.65%. Moreover, the Form entry is “C-III” in data set [2] (0 day, crystalline form by X-ray powder diffraction, malate); “C-III” in data set [2] (High humidity (92.5% RH, 25° C.), 5 days, X-ray powder diffraction, malate); “C-III” in data set [2] (High humidity (92.5% RH, 25° C.), 10 days, X-ray powder diffraction, malate); “C-III” in data set [2] (High temperature (60° C.), 5 days, X-ray powder diffraction, malate); “C-III” in data set [2] (High temperature (60° C.), 10 days, X-ray powder diffraction, malate); “C-III” in data set [2] (Illumination (4500 Lx), 5 days, X-ray powder diffraction, malate). The Form entry in data set [2] (Illumination (4500 Lx), 10 days, X-ray powder diffraction, malate) is “C-III”. For the same compound, the “Chiral Purity (%)” value stood at 99.39% in data set [2] (0 day, malate); 99.39% in data set [2] (setting [4]); 99.38% in data set [2] (setting [5]); 99.40% in data set [2] (setting [6]); 99.39% in data set [2] (setting [7]); 99.37% in data set [2] (setting [8]). For the same compound, the “Chiral Purity (%)” value in data set [2] (setting [9]) was found to be 99.40%.
Turning to `CS(=O)(=O)N1CCC(c2ccc(-c3cc4nccnc4c(NC[C@@H]4CNCCO4)n3)cc2)CC1.Cc1ccc(S(=O)(=O)O)cc1` [Form B-I, (S)-7-(4-(1-(methylsulfonyl)piperidin-4-yl)phenyl)-N-(morpholin-2-ylmethyl)pyrido[3,4-b]pyrazin-5-amine mono p-Tosylate], the “Rough solubility” value in data set [3] is 0.65 mg/mL. Further, the “Chiral Purity (%)” value in data set [2] (0 day) is recorded as 99.71%; in data set [2] (setting [11]), 99.76%; in data set [2] (setting [13]), 99.71%; in data set [2] (setting [15]), 99.70%; in data set [2] (setting [17]) it was 99.76%; in data set [2] (Illumination (4500 Lx), 5 days), 99.76%. The “Chiral Purity (%)” value in data set [2] (setting [20]) came to 99.72%. Besides, the “Purity (%)” value in data set [2] (0 day) was 99.49%; in data set [2] (setting [11]) it was 99.47%; in data set [2] (setting [13]), 99.63%; in data set [2] (setting [15]), 99.48%; in data set [2] (setting [17]), 99.51%; in data set [2] (Illumination (4500 Lx), 5 days) it was 99.19%. In addition, the “Purity (%)” value in data set [2] (setting [20]) is on record as 99.05%. The Form entry in data set [2] (setting [10]), in data set [2] (setting [12]), in data set [2] (setting [14]), in data set [2] (setting [16]), in data set [2] (setting [18]) and in data set [2] (setting [19]) was “B-I” throughout. Besides, in data set [2] (setting [21]), the Form entry is on record as “B-I”.
Turning to `CS(=O)(=O)N1CCC(c2ccc(-c3cc4nccnc4c(NC[C@@H]4CNCCO4)n3)cc2)CC1.O=C(O)CC(O)C(=O)O` [Form C-I, (S)-7-(4-(1-(methylsulfonyl)piperidin-4-yl)phenyl)-N-(morpholin-2-ylmethyl)pyrido[3,4-b]pyrazin-5-amine monomalate], in data set [3], the solubility at 5 min was 480 µg/mL. Further, the “Purity (%)” value is given as 99.71% in data set [2] (0 day, monomalate); 99.72% in data set [2] (setting [22]); 99.68% in data set [2] (setting [23]); 99.61% in data set [2] (setting [24]); 99.63% in data set [2] (setting [25]); 99.67% in data set [2] (setting [26]). Also, in data set [2] (setting [27]), the “Purity (%)” value is reported as 99.61%. In addition, the Form entry in data set [2] (0 day, crystalline form by X-ray powder diffraction, monomalate) is reported as “C-I”; in data set [2] (High humidity (92.5% RH, 25° C.), 5 days, X-ray powder diffraction, monomalate), “C-I”; in data set [2] (High humidity (92.5% RH, 25° C.), 10 days, X-ray powder diffraction, monomalate), “C-I”; in data set [2] (High temperature (60° C.), 5 days, X-ray powder diffraction, monomalate), “C-I”; in data set [2] (High temperature (60° C.), 10 days, X-ray powder diffraction, monomalate), “C-I”; in data set [2] (Illumination (4500 Lx), 5 days, X-ray powder diffraction, monomalate) it was “C-I”. For the same compound, the Form result in data set [2] (Illumination (4500 Lx), 10 days, X-ray powder diffraction, monomalate) was “C-I”. Besides, the “Chiral Purity (%)” value in data set [2] (0 day, monomalate) was determined as 99.52%; in data set [2] (setting [22]), 99.53%; in data set [2] (setting [23]), 99.53%; in data set [2] (setting [24]) it was 99.52%; in data set [2] (setting [25]), 99.54%; in data set [2] (setting [26]), 99.51%. In addition, the “Chiral Purity (%)” value in data set [2] (setting [27]) amounted to 99.50%. Further, in data set [2], the “Stability (chemical purity and crystalline form)” value is given as “stable”.
As to `CC(=O)O.CS(=O)(=O)N1CCC(c2ccc(-c3cc4nccnc4c(NC[C@@H]4CNCCO4)n3)cc2)CC1` [Form A-I, (S)-7-(4-(1-(methylsulfonyl)piperidin-4-yl)phenyl)-N-(morpholin-2-ylmethyl)pyrido[3,4-b]pyrazin-5-amine monoacetate], the solubility at 5 min in data set [3] was determined as 14600 µg/mL. The solubility at 4 h in “physchem” (37 °C) came to 26.2 mg/mL; in “physchem”, 21.8 mg/mL. Further, the “Chiral Purity (%)” value in data set [2] (0 day) is given as 99.63%; in data set [2] (setting [11]), 99.69%; in data set [2] (setting [13]), 99.71%; in data set [2] (setting [15]) it was 99.66%; in data set [2] (setting [17]) it was 99.71%; in data set [2] (Illumination (4500 Lx), 5 days) it was 99.69%. Moreover, the “Chiral Purity (%)” value in data set [2] (setting [20]) was 99.71%. Further, the “Purity (%)” value in data set [2] (0 day) was 99.39%; in data set [2] (setting [11]), 99.35%; in data set [2] (setting [13]), 99.53%; in data set [2] (setting [15]) it was 99.31%; in data set [2] (setting [17]), 99.37%; in data set [2] (Illumination (4500 Lx), 5 days) it was 99.30%. Moreover, in data set [2] (setting [20]), the “Purity (%)” value came to 98.99%. In addition, the Form entry in data set [2] (setting [10]), in data set [2] (setting [12]), in data set [2] (setting [14]), in data set [2] (setting [16]), in data set [2] (setting [18]) and in data set [2] (setting [19]) was “A-I” in each case. In data set [2] (setting [21]), the Form entry is recorded as “A-I”. Further, the “Stability (chemical purity and crystalline form)” value in data set [2] is given as “stable”.
